Source: ChEMBL document CHEMBL1201862, “PubChem BioAssay data set” (2004)
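96-well plates; 48 h exposure; 5 concentrations. Endpoints by linear interpolation between flanking doses. Not reached: highest tested concentration assigned. GI50 = concentration required for 50% inhibition of growth.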 Activity calls are given as the source filed them. Cut-off read from the data, not from the text of the source: active = GI50 up to about 1.1 µM and inactive = higher.

What was measured:
Test in all cases: growth of human tumour cells (NCI), 48 h
[1] = tested on: 786-0
[2] = tested on: A498
[3] = tested on: A549
[4] = tested on: ACHN
[5] = tested on: CAKI-1
[6] = tested on: CCRF-CEM
[7] = tested on: COLO 205
[8] = tested on: DU-145
[9] = tested on: EKVX
[10] = tested on: HCC 2998
[11] = tested on: HCT-116
[12] = tested on: HCT-15
[13] = tested on: HL-60
[14] = tested on: HOP-62
[15] = tested on: HOP-92
[16] = tested on: HT-29
[17] = tested on: Hs-578T
[18] = tested on: IGROV-1
[19] = tested on: K562
[20] = tested on: KM12
[21] = tested on: LOX IMVI
[22] = tested on: M14
[23] = tested on: MCF7
[24] = tested on: MDA-MB-231
[25] = tested on: MDA-MB-435
[26] = tested on: MDA-N
[27] = tested on: MOLT-4
[28] = tested on: Malme-3M
[29] = tested on: NCI-H226
[30] = tested on: NCI-H23
[31] = tested on: NCI-H460
[32] = tested on: NCI-H522
[33] = tested on: NCI/ADR-RES
[34] = tested on: OVCAR-3
[35] = tested on: OVCAR-4
[36] = tested on: OVCAR-5
[37] = tested on: OVCAR-8
[38] = tested on: PC-3
[39] = tested on: RPMI-8226
[40] = tested on: RXF 393
[41] = tested on: SF-268
[42] = tested on: SF-295
[43] = tested on: SF-539
[44] = tested on: SK-MEL-28
[45] = tested on: SK-MEL-2
[46] = tested on: SK-MEL-5
[47] = tested on: SK-OV-3
[48] = tested on: SN12C
[49] = tested on: SNB-19
[50] = tested on: SNB-75
[51] = tested on: SR
[52] = tested on: SW-620
[53] = tested on: T47D
[54] = tested on: TK-10
[55] = tested on: U-251
[56] = tested on: UACC-257
[57] = tested on: UACC-62
[58] = tested on: UO-31
[59] = tested on: BT-549

Measured: GI50

CC(=NNC(=S)Nc1ccc(C)cc1)c1cccc(C(C)=NNC(=S)Nc2ccc(C)cc2)n1
6.82 µM: [12]
inactive: [1] 5.9 µM | [2] 20.9 µM | [3] 12.9 µM | [4] 5.66 µM | [5] 4.75 µM | [6] 7.5 µM | [7] 3.83 µM | [8] > 100 µM | [9] 21.5 µM | [10] 35.6 µM | [11] 7.33 µM | [13] 3.97 µM | [14] 9.82 µM | [15] 10 µM | [16] 11.9 µM | [17] 41.1 µM | [18] 12.1 µM | [19] 12.2 µM | [20] 13.8 µM | [21] 9.91 µM | [22] 8.89 µM | [23] > 100 µM | [24] 24.2 µM | [25] 13.6 µM | [26] 19.9 µM | [27] 4.18 µM | [28] 2.06 µM | [29] 13.7 µM | [30] 22 µM | [31] 6.47 µM | [32] 22.3 µM | [33] 5 µM | [34] 1.5 µM | [35] 10.9 µM | [36] 60.5 µM | [37] 6.44 µM | [38] 17.7 µM | [39] 19.2 µM | [40] 14.4 µM | [41] > 100 µM | [42] 11 µM | [43] 7.01 µM | [44] > 100 µM | [45] 68.7 µM | [46] 6.44 µM | [47] 47.3 µM | [48] 21.5 µM | [49] 36.3 µM | [50] 4.69 µM | [51] 4.02 µM | [52] 10.9 µM | [53] 29.6 µM | [54] 60.1 µM | [55] 31.3 µM | [56] 13.9 µM | [57] 7.14 µM | [58] 6.68 µM

N#CC(=S)Nc1cccc(Cl)c1
27.9 µM: [12]
inactive: [1] 40.5 µM | [2] 34.1 µM | [3] 23.8 µM | [4] 26.2 µM | [59] 35.5 µM | [5] 41.9 µM | [6] 30 µM | [7] 36.1 µM | [8] 50.8 µM | [9] 41.1 µM | [10] 28.8 µM | [11] 55.3 µM | [13] 33.2 µM | [14] 43.8 µM | [15] 35.6 µM | [16] 19.5 µM | [18] 5.13 µM | [19] 19.5 µM | [20] 24.8 µM | [21] 39.3 µM | [22] 27.5 µM | [23] 46.8 µM | [24] 38.4 µM | [25] 33.1 µM | [26] 44.3 µM | [27] 34 µM | [28] 30.3 µM | [29] 23.9 µM | [30] 31.4 µM | [31] 19.9 µM | [33] 30.7 µM | [34] 16 µM | [35] 42.4 µM | [36] 28.5 µM | [37] 32.3 µM | [38] 32.7 µM | [39] 5.38 µM | [40] 26 µM | [41] 40.5 µM | [42] 23.8 µM | [43] 25.9 µM | [44] 44.7 µM | [45] 26.5 µM | [46] 4.11 µM | [47] 33.3 µM | [48] 44.1 µM | [49] 54.5 µM | [50] 23.9 µM | [52] 53.2 µM | [53] 27.2 µM | [54] 35.4 µM | [55] 34.8 µM | [56] 37.2 µM | [57] 19 µM
